Entries after “also recorded” stand apart in the source; their conditions may differ.
System: rat cortical stem cells
Test: Differentiation of rat cortical stem cells into GABA expressing cells (GABA immunocytochemistry)
Assay type: cell-based
Settings: 6 days valproate vs control
Description: Drug treatment. For immunofluorescence and Western analysis, cells were treated daily with either 0.5 mM of valproate (Sigma), 10 ng/ml of BDNF (R & D Systems), 20 ng/ml of NT-3 (R & D Systems), 1 nM 9cis retinoic acid (Sigma) or a dilution of NCM for 6 or 7 days. In some experiments valproate was also added with NCM and/or 9cis RA for 7 days. For human stem cell experiments, valproate (0.5 mM) or BDNF (25 ng/ml) was added for 9 days. For neurite outgrowth experiments, cells were treated for 1 day with 0.5 mM valproate or 50 ng/ml of BDNF. Where applicable, medium was changed every 2 days. After about 5–10 days, preferably on day 6 (i.e., after 6 days of drug exposure) the cells were fixed with a 4% solution of para-formaldehyde (PFA) in PBS, prepared as follows: Immunofluorescent staining and visualization. Cells were plated at 20,000 cells/well in poly-L-ornithine/fibronectin (1 mg/ml) coated 24-well plates. […] For immunofluorescence, 3 different black and white pictures were taken by field of interest with a digital camera CoolSnap Fx (Princeton) corresponding to the exposure of Cy2, Cy3 and Hoechst fluorescence. […] The percentage of neurons, astrocytes and GABAergic cells was determined by comparing the number of cells immunopositive for β-tubulin III, GFAP and GABA to the number of bis-benzamide stained nuclei (i.e., total cell number). […]

**Q.** `CCCC(CCC)C(=O)O` [valproate, 2-Propylpentanoic acid] was tested. Which “number and percentage of cells immuno-positive for GABA” value did it give?
**A.** The value was “dramatic increase in the number; also recorded: increase in the number of GABA-positive neurons”.

Source: patent US7132286B2, “Method for neural stem cell differentiation using valproate” (Psychiatric Genomics, Inc., priority 2001, dated 2006)
